Data reported in ChEMBL document CHEMBL3880404, “Aminopyrimidines useful as kinase inhibitors” (2007).

Key:
[1] = target: T1, Aurora kinase A (Homo sapiens, UniProt O14965); assay: Inhibition of Aurora-2 (unknown origin) pre-incubated with substrate for 10 mins before enzyme addition and measured after 10 mins post enzyme addition using Kemptide substrate by pyruvate kinase and LDH based standard coupled enzyme assay
T1 sequence (O14965 whole entry): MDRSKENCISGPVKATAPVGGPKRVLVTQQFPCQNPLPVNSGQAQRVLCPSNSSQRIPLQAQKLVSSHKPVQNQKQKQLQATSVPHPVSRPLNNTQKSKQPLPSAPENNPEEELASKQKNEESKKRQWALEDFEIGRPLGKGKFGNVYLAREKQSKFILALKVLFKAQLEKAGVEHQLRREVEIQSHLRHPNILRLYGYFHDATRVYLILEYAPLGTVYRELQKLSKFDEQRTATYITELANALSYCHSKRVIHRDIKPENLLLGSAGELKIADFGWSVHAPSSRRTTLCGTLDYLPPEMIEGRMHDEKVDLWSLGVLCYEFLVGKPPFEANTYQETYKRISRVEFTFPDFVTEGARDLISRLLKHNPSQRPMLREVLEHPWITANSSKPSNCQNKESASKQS

[2] = target: Aurora kinase B (Homo sapiens, UniProt Q96GD4); assay: Inhibition of Aurora-1 (unknown origin) incubated for 10 mins using Kemptide substrate and [gamma-33P]-ATP measured after 3 hrs by liquid scintillation counting based radiometric assay
Aurora kinase B, sequence (Q96GD4 whole entry): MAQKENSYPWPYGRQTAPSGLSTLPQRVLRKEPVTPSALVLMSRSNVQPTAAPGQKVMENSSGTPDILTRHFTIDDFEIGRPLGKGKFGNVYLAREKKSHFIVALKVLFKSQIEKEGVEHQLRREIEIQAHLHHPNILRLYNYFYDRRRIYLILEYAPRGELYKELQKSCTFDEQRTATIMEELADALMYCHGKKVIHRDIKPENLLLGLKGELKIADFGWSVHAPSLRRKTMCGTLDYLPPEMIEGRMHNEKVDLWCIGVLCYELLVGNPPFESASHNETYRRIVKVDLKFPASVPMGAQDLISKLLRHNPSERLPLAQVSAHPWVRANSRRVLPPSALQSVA

[3] = target: T2, Tyrosine-protein kinase JAK3 (Homo sapiens, UniProt P52333); assay: Inhibition of JAK3 (unknown origin) using poly(Glu)4Tyr substrate and [gamma-33P]-ATP incubated for 20 mins by Top-count assay
T2 sequence (P52333 whole entry): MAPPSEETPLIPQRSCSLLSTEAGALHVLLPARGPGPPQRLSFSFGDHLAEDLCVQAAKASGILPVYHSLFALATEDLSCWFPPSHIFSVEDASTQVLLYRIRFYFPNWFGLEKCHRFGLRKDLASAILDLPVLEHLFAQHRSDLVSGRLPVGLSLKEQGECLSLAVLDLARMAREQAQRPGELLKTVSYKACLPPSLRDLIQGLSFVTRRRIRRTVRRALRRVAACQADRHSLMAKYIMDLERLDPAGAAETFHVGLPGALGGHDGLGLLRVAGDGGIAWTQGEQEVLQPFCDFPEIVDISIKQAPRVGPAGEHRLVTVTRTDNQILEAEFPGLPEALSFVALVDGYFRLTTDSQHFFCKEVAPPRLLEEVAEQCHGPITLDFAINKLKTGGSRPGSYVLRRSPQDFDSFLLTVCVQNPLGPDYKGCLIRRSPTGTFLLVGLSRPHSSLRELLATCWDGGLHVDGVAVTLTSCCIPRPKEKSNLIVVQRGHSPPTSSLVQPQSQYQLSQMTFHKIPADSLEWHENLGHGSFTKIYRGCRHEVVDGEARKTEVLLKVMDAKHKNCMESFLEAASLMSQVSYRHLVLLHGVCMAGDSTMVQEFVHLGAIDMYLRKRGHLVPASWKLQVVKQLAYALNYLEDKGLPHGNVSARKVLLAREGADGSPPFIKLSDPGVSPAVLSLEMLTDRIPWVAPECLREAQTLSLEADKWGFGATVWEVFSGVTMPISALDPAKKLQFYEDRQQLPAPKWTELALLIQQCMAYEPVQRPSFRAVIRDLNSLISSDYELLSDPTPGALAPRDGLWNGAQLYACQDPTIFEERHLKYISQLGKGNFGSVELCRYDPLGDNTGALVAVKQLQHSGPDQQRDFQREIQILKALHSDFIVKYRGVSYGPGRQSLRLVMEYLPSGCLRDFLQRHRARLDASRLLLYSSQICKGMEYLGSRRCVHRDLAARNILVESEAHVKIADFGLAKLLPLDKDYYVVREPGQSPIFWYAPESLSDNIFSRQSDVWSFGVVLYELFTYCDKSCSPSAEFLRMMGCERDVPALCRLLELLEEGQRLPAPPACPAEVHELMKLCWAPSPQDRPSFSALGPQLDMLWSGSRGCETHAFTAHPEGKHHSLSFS

[4] = target: Tyrosine-protein kinase JAK2 (Homo sapiens, UniProt O60674); assay: Inhibition of JAK2 (unknown origin) using poly(Glu)4Tyr substrate and [gamma-33P]-ATP incubated for 20 mins by Top-count assay
Tyrosine-protein kinase JAK2, sequence (O60674 whole entry): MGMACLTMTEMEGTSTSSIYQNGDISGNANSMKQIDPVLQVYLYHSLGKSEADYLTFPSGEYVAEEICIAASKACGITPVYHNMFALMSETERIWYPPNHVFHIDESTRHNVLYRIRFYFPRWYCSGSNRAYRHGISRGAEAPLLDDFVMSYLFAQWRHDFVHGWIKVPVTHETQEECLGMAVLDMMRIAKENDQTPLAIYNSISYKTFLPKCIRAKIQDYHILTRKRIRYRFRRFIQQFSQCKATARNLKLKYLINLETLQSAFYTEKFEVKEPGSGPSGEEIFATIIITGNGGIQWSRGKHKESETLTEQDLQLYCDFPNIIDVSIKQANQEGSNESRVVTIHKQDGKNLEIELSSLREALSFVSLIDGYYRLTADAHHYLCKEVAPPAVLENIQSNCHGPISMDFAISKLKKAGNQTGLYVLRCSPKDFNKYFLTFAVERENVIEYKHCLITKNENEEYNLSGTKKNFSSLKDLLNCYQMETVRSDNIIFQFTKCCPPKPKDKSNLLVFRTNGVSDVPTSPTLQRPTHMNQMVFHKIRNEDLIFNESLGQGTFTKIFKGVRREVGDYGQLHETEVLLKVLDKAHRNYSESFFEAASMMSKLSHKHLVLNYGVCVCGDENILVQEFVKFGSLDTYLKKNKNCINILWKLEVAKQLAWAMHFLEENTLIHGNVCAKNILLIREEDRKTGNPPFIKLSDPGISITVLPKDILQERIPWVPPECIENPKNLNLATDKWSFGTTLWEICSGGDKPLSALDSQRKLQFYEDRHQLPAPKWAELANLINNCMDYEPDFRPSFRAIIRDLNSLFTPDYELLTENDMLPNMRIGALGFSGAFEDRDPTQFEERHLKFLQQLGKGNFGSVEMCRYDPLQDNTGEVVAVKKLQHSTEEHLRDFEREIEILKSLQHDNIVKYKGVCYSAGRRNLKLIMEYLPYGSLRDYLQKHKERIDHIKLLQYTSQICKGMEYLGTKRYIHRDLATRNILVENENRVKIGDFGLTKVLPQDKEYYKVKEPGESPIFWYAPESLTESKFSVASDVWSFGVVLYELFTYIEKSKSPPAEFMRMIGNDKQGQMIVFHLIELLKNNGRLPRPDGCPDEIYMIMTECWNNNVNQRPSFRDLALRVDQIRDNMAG

Ki [2]	Ki [3]	Structure (SMILES)	Ki [1]	Ki [4]
< 0.5 µM	< 0.5 µM	Cc1cc(Nc2cc(N3CC(F)(C4CC4)C3)nc(O[C@H]3CCN(C(=O)OC(C)(C)C)C3)n2)[nH]n1	< 0.01 µM	< 0.1 µM
< 0.5 µM	< 0.5 µM	Cc1cc(Nc2cc(N3CCC3)nc(O[C@H]3CCN(C(=O)OC(C)(C)C)C3)n2)[nH]n1	–	–
–	–	Cc1cc(Nc2cc(N3CC(F)(C4CC4)C3)nc(O[C@H]3CCN(C(=O)c4cc(Cl)ccc4F)C3)n2)n[nH]1 [MK-6592]	< 0.01 µM	< 0.1 µM
